# Test results from ChEMBL document CHEMBL5550115, “Histone deacetylase (HDAC) inhibitor specificity determinants are preserved in a class of dual HDAC/non-covalent proteasome inhibitors” (Bioorg Med Chem, 2024).
# Key:
# A-375 = assay: Antiproliferative activity against human A-375 cells assessed as inhibition of cell growth measured after 48 hrs by cell titer-blue cell viability assay; type: functional, cell-based; settings: A-375, 48 h
# RPMI-8226 = assay: Antiproliferative activity against human RPMI-8226 cells assessed as inhibition of cell growth measured after 72 hrs by MTS method; type: functional, cell-based; settings: RPMI-8226, 72 h
# 20S proteasome = assay: Inhibition of human 20S proteasome chymotrypsin-like activity using Suc-LLVY-Glo as a […] substrate measured after 10 mins by luminescence based analysis; type: protein-complex assay
# [1] = molecular target: T1, Proteasome Macropain subunit MB1 (Homo sapiens, UniProt P28074); assay: Inhibition of human 20S proteosome beta5c subunit using Ac-WLA-AMC as substrate by microplate reader analysis
# T1 sequence (P28074 whole entry): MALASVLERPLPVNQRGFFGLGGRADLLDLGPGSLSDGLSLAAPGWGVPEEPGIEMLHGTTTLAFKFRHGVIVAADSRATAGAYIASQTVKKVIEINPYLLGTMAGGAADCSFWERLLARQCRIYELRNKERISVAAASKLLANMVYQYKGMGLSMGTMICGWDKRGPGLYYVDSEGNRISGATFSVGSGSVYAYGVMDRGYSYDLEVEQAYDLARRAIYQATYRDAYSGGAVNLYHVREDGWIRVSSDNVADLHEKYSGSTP
# [2] = molecular target: T2, Protein deacetylase HDAC6 (Homo sapiens) (UniProt Q9UBN7); assay: Inhibition of HDAC6 (unknown origin) at 1 uM incubated for 1 hr by fluorescence based microplate reader analysis relative to control
# T2 sequence (whole entry): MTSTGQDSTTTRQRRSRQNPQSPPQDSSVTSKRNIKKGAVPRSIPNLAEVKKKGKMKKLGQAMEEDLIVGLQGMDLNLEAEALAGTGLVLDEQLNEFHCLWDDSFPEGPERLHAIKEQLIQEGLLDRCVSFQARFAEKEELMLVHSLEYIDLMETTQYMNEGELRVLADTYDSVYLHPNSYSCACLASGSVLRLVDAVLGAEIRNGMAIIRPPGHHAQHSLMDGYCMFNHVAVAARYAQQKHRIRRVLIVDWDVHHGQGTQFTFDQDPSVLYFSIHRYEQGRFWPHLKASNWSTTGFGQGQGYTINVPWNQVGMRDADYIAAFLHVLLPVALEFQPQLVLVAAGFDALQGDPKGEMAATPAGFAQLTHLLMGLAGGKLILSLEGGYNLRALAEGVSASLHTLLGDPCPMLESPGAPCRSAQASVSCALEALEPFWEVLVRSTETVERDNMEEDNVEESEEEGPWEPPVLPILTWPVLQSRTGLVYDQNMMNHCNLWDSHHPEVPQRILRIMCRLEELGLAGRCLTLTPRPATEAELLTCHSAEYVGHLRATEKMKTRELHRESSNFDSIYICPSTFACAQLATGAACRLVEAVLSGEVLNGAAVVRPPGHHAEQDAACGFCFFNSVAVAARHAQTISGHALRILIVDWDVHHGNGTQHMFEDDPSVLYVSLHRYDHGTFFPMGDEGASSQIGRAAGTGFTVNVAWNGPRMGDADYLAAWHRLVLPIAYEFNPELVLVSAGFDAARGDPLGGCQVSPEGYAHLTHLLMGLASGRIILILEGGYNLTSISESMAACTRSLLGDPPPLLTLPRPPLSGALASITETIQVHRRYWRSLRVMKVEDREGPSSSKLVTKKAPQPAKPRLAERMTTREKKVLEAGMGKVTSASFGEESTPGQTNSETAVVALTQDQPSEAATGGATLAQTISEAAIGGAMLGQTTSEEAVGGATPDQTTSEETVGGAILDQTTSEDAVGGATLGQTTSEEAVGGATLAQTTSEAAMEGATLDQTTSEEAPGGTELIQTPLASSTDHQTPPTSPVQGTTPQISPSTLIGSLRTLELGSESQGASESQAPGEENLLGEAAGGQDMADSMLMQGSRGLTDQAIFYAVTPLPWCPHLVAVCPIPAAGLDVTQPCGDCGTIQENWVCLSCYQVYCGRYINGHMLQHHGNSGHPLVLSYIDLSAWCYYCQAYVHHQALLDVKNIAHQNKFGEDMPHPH
# [3] = molecular target: Histone deacetylase 1 (Homo sapiens) (UniProt Q13547); assay: Inhibition of HDAC1 (unknown origin) at 1 uM incubated for 1 hr by fluorescence based microplate reader analysis relative to control
# Chain of Histone deacetylase 1 (Homo sapiens) (Q13547 whole entry): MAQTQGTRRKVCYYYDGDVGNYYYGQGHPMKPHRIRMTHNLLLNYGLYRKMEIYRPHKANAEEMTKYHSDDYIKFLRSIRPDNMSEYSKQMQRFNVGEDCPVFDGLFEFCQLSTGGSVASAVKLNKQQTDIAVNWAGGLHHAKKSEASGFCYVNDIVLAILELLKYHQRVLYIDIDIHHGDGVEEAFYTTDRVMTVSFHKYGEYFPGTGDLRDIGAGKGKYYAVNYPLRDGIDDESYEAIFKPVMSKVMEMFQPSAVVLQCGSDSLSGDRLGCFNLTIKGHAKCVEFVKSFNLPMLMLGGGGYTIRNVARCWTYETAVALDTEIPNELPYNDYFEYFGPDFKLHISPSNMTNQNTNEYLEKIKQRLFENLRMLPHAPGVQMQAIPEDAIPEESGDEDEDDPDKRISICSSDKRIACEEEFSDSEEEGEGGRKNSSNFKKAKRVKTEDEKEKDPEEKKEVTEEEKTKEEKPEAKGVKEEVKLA
IC50 (A-375) [µM],IC50 (RPMI-8226) [µM],IC50 (20S proteasome) [µM],IC50 [1] [µM],inhibition [2] [%],inhibition [3] [%],SMILES
> 50,> 50,> 30,–,–,–,C[C@H](NC(=O)[C@H](CC(=O)NCC(C)(C)C)NC(=O)CCC(=O)Nc1ccc(C(=O)NO)cc1)C(=O)NCc1ccc(F)cc1F
–,> 50,> 30,–,–,–,C[C@H](NC(=O)[C@H](CC(=O)NCC(C)(C)C)NC(=O)c1ccc(C(=O)NO)cc1)C(=O)NCc1ccc(F)cc1F
1.83,7.03,0.199,–,–,–,C[C@H](NC(=O)[C@H](CC(=O)NCC(C)(C)C)NC(=O)c1ccc(/C=C/C(=O)NO)cc1)C(=O)NCc1ccc(F)cc1F
–,> 50,> 30,–,–,–,C[C@H](NC(=O)[C@H](CC(=O)NCC(C)(C)C)NC(=O)CCCCCCC(=O)NO)C(=O)NCc1ccc(F)cc1F
8.87,11.5,0.729,0.0024,–,–,C[C@H](NC(=O)[C@H](CC(=O)NCC(C)(C)C)NC(=O)c1c[nH]c2ccccc12)C(=O)NCc1ccc(F)cc1F
> 50,> 50,–,–,13,65,C[C@H](NC(=O)[C@H](CC(=O)NCC(C)(C)C)NC(=O)c1ccc(C(=O)Nc2ccccc2N)cc1)C(=O)NCc1ccc(F)cc1F
